# Assay results published in PMC10726352, “Discovery of KB-0742, a Potent, Selective, Orally Bioavailable Small Molecule Inhibitor of CDK9 for MYC-Dependent Cancers” (Journal of Medicinal Chemistry, 2023).
# “And” between values parts separate entries of the source, which are not always exact repeats. Equal values may be shown once.
# Legend:
# in vitro [1] = settings: mouse, rat, dog, human, microsomes and hepatocytes
# LogD = type: physicochemical; settings: pH = 7.4
# Pharmacokinetics [2] = type: in vivo; settings: rat
# in vitro [3] = settings: rat, hepatocytes
# [4] = Plasma concentration in CTG-1017 tumor-bearing mice; type: in vivo; settings: Athymic Nude-Foxn1nu, mouse, po, 60 mg/kg p.o.
# Plasma protein binding [5] = settings: rat
# Plasma protein binding [6] = settings: mouse
# Pharmacokinetics [7] = type: in vivo; settings: mouse
# Microsome stability [8] = settings: dog
# Pharmacokinetics [9] = type: in vivo; settings: dog
# in vitro [10] = settings: human, hepatocytes
# [11] = Projection of human PK parameters
# Microsome stability [12] = settings: rat
# Plasma protein binding [13] = settings: dog
# in vitro [14] = settings: dog, hepatocytes
# Microsome stability [15] = settings: human
# Microsome stability [16] = settings: mouse
# in vitro [17] = settings: mouse, hepatocytes
# Plasma protein binding [18] = settings: human
# BT-549 = assay: OncoPanel Multiplexed Cytotoxicity Assay; type: cell-based
# MT-3 = assay: OncoPanel Multiplexed Cytotoxicity Assay; type: cell-based
# MDA-MB-231 = assay: OncoPanel Multiplexed Cytotoxicity Assay; type: cell-based
# Hs 578T = assay: OncoPanel Multiplexed Cytotoxicity Assay; type: cell-based
# BT-20 = assay: OncoPanel Multiplexed Cytotoxicity Assay; type: cell-based
smiles,measurement,setting,value
"CCC(CC)c1cc(N[C@H]2CC[C@H](N)C2)n2nccc2n1 [Compound 28, [(1S,3S)-3-[[5-(1-Ethylpropyl)pyrazolo[1,5-a]pyrimidin-4-ium-7-yl]amino]cyclopentyl]ammonium Dichloride]",half-life,in vitro [1],≥ 2 h
same,logD,LogD,0.9
same,T1/2 (i.v.),Pharmacokinetics [2]; i.v. 2.0 mg/kg,2.4 h
same,AUC (p.o.),Pharmacokinetics [2]; p.o. 10 mg/kg,3591 ng·h/mL
same,Cmax (p.o.),Pharmacokinetics [2]; p.o. 10 mg/kg,411 ng/mL
same,CLint scaled,in vitro [3],62 mL/min/kg
same,half-life,in vitro [3],1.97 h
same,concentration at 2 h,[4]; 2 h post-dose,846 ng/mL and 2.9 µM
same,concentration at 8 h,[4]; 8 h post-dose,73 ng/mL and 250 nM
same,PPB,Plasma protein binding [5],41 % bound
same,PPB,Plasma protein binding [6],48 % bound
same,"Vd,ss (i.v.)",Pharmacokinetics [7]; i.v. 1.0 mg/kg,3.9 L/kg
same,AUC (p.o.),Pharmacokinetics [7]; p.o. 20 mg/kg,1700 ng·h/mL
same,Cmax (p.o.),Pharmacokinetics [7]; p.o. 20 mg/kg,501 ng/mL
same,Microsome stability,Microsome stability [8],68.8 % remaining 180 min
same,T1/2 (i.v.),Pharmacokinetics [9]; i.v. 0.50 mg/kg,4.7 h
same,"Vd,ss (i.v.)",Pharmacokinetics [9]; i.v. 0.50 mg/kg,4.5 L/kg
same,F,Pharmacokinetics [9]; p.o. […],>100%
same,CLint scaled,"Pharmacokinetics [9]; plasma, iv, 0.5 mg/kg, i.v. 0.50 mg/kg",13.4 mL/min/kg
same,CLint scaled,in vitro [10],1.6 mL/min/kg
same,half-life,in vitro [10],39 h
same,"mean predicted human Vd,ss","[11]; 70 kg body weight, IVIVE and allometry",6.0 L/kg
same,predicted human oral bioavailability,[11]; derived from nonclinical species,75%
same,half-life,"[11]; human, plasma, one-compartment, read-out: estimated human terminal half-life (converted)",~35 h
same,Microsome stability,Microsome stability [12],81.3 % remaining 180 min
same,PPB,Plasma protein binding [13],72 % bound
same,CLint scaled,in vitro [14],38 mL/min/kg
same,half-life,in vitro [14],3.25 h
same,Microsome stability,Microsome stability [15],92.5 % remaining 180 min
same,Microsome stability,Microsome stability [16],87.4 % remaining 180 min
same,CLint scaled,in vitro [17],44 mL/min/kg
same,PPB,Plasma protein binding [18],38 % bound
CN[C@@H]1C[C@H]2O[C@@](C)([C@@H]1OC)n1c3ccccc3c3c4c(c5c6ccccc6n2c5c31)C(=O)NC4 [Staurosporine],Apoptosis Emax,BT-549,6.9
same,Cell Count Activity Area,BT-549,4.39
same,G1/S cell cycle block,"BT-549; BT-549, 72 h",0.00531 µM
same,GI50,"BT-549; Homo sapiens, BT-549, 72 h, read-out: Cell count GI50",5.56 nM
same,Apoptosis Emax,MT-3,10.32
same,G1/S cell cycle block,"MT-3; MT-3, 72 h",0.0273 µM
same,GI50,"MT-3; MT-3, 72 h, read-out: Cell count GI50",9.39 nM
same,Apoptosis Emax,MDA-MB-231,5.32
same,Cell Count Activity Area,MDA-MB-231,5.26
same,IC50,"MDA-MB-231; Homo sapiens, MDA-MB-231, 72 h, read-out: Cell count IC50",1.69 nM
same,G1/S cell cycle block,"MDA-MB-231; MDA-MB-231, 72 h",0.0122 µM
same,Apoptosis Emax,Hs 578T,6.48
same,Cell Count Activity Area,Hs 578T,4.99
same,GI50,"Hs 578T; Homo sapiens, Hs-578T, 72 h, read-out: Cell count GI50",1.45 nM
same,G1/S cell cycle block,"Hs 578T; Hs 578T, 72 h",0.000753 µM
same,Apoptosis Emax,BT-20,4.6
same,Cell Count Activity Area,BT-20,2.58
same,G1/S cell cycle block,"BT-20; BT-20, 72 h",0.00581 µM
same,EC50,"BT-20; Homo sapiens, BT-20, 72 h, read-out: Cell Count EC50",31.6 nM
same,GI50,"BT-20; Homo sapiens, BT-20, 72 h, read-out: Cell count GI50",23.6 nM
